Reference: EP3928779A1 (Chugai Seiyaku Kabushiki Kaisha, priority 2014, dated 2016)

Tested on: rat small-intestinal brush border membrane vesicles
Assay: Inhibitory effect on 33PO4 uptake into rat small-intestinal brush border membrane vesicles (rapid filtration method)
Format: biochemical
Conditions: 33PO4 uptake into rat small-intestinal BBMVs; test compound 1 µM; reacted for 60 seconds
Protocol: Brush border membrane vesicles (BBMVs) were prepared using the upper region of the small intestine of each Wistar female rat (4-5 weeks old). […] The ^33PO4 transport activity of the small-intestinal BBMVs was determined by the rapid filtration method. […] Then, ice-cold buffer C (110 mM NaCl, 1 mM KH2PO4, and 10 mM HEPES (pH 7.5)) was added to each reaction mixture, which was immediately suctionfiltered through a Millipore filter. The filter was washed with buffer C, and each sample was then dissolved in a liquid scintillator. The amount of ^33PO4 uptake into BBMVs was measured using a liquid scintillation counter. […]

| SMILES | Rate of uptake inhibition (%) (1 µM) |
| --- | --- |
| C[C@]12CCCN1N(Cc1c(F)cc(CCCCCCCOC[C@H](O)[C@@H](O)CO)cc1F)C(=O)C(C(=O)Nc1ccc(C(F)(F)F)cc1-c1ccc(C(F)(F)F)nc1)=C2O [Example 125, (4aR)-1-[[2,6-Difluoro-4-[7-[(2S,3S)-2,3,4-trihydroxybutoxy]heptyl]phenyl]methyl]-4-hydroxy-4a-methyl-2-oxo-N-[4-(trifluoromethyl)-2-[6-(trifluoromethyl)pyridin-3-yl]phenyl]-6,7-dihydro-5H-pyrrolo[1,2-b]pyridazine-3-carboxamide] | 76% |
| C#Cc1ccc(CN2C(=O)C(C(=O)Nc3ccc(C(F)(F)F)cc3-c3cc(C(F)(F)F)ncn3)=C(O)[C@@]3(C)CCCN23)c(F)c1F [Example 126] | 71% |
| COc1cccc(-c2cc(C(F)(F)F)ccc2NC(=O)C2=C(O)[C@@]3(C)CCCN3N(Cc3ccc(C#CCOCCCO)c(F)c3F)C2=O)c1OC [Example 127] | 95% |
| C[C@]12CCCN1N(Cc1ccc(C#CCOCCCCO)c(F)c1F)C(=O)C(C(=O)Nc1ccc(C(F)(F)F)cc1-c1ccc(C(F)(F)F)nc1)=C2O [Example 128] | 72% |
| C[C@]12CCCN1N(Cc1c(F)cc(C#CC3(O)CCCC3)cc1F)C(=O)C(C(=O)Nc1ccc(C(F)(F)F)cc1-c1ccc(C(F)(F)F)nc1)=C2O [Example 130] | 72% |
| C[C@]12CCCN1N(Cc1ccc(C#CCN3CCCC3=O)c(F)c1F)C(=O)C(C(=O)Nc1ccc(Br)c(F)c1)=C2O [Example 131] | 87% |
| C[C@]12CCCN1N(Cc1c(F)cc(C#CCN3CCOCC3)cc1F)C(=O)C(C(=O)Nc1ccc(C(F)(F)F)cc1-c1ccc(C(F)(F)F)nc1)=C2O [Example 132] | 71% |
| COc1cccc(-c2cc(C(F)(F)F)ccc2NC(=O)C2=C(O)[C@@]3(C)CCCN3N(Cc3ccc(C#CCCCCO)c(F)c3F)C2=O)c1OC [Example 135] | 90% |
| COc1cccc(-c2cc(C(F)(F)F)ccc2NC(=O)C2=C(O)[C@@]3(C)CCCN3N(Cc3ccc(C#CCOCCOCCOCCO)c(F)c3F)C2=O)c1OC [Example 136] | 80% |
| COc1cccc(-c2cc(C(F)(F)F)ccc2NC(=O)C2=C(O)[C@@]3(C)CCCN3N(Cc3ccc(C#CCOCCO)c(F)c3F)C2=O)c1OC [Example 137] | 92% |
| COc1cccc(-c2cc(C(F)(F)F)ccc2NC(=O)C2=C(O)[C@@]3(C)CCCN3N(Cc3ccc(C#CCCCO)c(F)c3F)C2=O)c1OC [Example 138] | 93% |
| COc1cccc(-c2cc(C(F)(F)F)ccc2NC(=O)C2=C(O)[C@@]3(C)CCCN3N(Cc3ccc(C#CCOCCOCCO)c(F)c3F)C2=O)c1OC [Example 139] | 88% |
| C[C@]12CCCN1N(Cc1ccc(CCCOCCCO)c(F)c1F)C(=O)C(C(=O)Nc1ccc(C(F)(F)F)cc1-c1ccc(C(F)(F)F)nc1)=C2O [Example 141] | 83% |
| COc1cccc(-c2cc(C(F)(F)F)ccc2NC(=O)C2=C(O)[C@@]3(C)CCCN3N(Cc3ccc(CCCOCCOCCOCCO)c(F)c3F)C2=O)c1OC [Example 142] | 76% |
| C[C@]12CCCN1N(Cc1c(F)cc(C#CCCCCOC[C@H](O)CO)cc1F)C(=O)C(C(=O)Nc1ccc(C(F)(F)F)cc1-c1ccc(C(F)(F)F)nc1)=C2O.[Na+] [Example 143] | 71% |
| C[C@]12CCCN1N(Cc1c(F)cc(C#CCCOC[C@H](O)CO)cc1F)C(=O)C(C(=O)Nc1ccc(C(F)(F)F)cc1-c1ccc(C(F)(F)F)nc1)=C2O [Example 145] | 78% |
| C[C@]12CCCN1N(Cc1c(Cl)cc(OCCN3CCOCC3)cc1Cl)C(=O)C(C(=O)Nc1cnc(C(F)(F)F)nc1-c1ccc(C(F)(F)F)nc1)=C2O.Cl [Example 146, (4aR)-1-[[2,6-Dichloro-4-(2-morpholin-4-ylethoxy)phenyl]methyl]-4-hydroxy-4a-methyl-2-oxo-N-[2-(trifluoromethyl)-4-[6-(trifluoromethyl)pyridin-3-yl]pyrimidin-5-yl]-6,7-dihyvdro-5H-pyrrolo[1,2-b]pyridazine-3-carboxamide hydrochloride] | 71% |
| C[C@]12CCCN1N(Cc1c(Cl)cc(OCCN3CCOCC3)cc1Cl)C(=O)C(C(=O)Nc1ccc(C(F)(F)F)nc1-c1ccc(C(F)(F)F)nc1)=C2O.Cl [Example 148, (4aR)-1-[[2,6-Dichloro-4-(2-morpholin-4-ylethoxy)phenyl]methyl]-4-hydroxy-4a-methyl-2-oxo-N-[6-(trifluoromethyl)-2-16-(trifluoromethyl)pyridin-3-yl]pyridin-1-yl]-6,7-dihydro-5H-pyrrolo[1,2-bipyridazine-3-carboxamide hydrochloride] | 75% |
| C[C@]12CCCN1N(Cc1ccc(OCCN3CCOCC3)c(Cl)c1)C(=O)C(C(=O)Nc1ccc(C(F)(F)F)cc1-c1ccc(C(F)(F)F)nc1)=C2O [Example 149, (4aR)-1-[[3-Chloro-4-(2-morpholin-4-ylethoxy)phepyl]methyl]-4-hydroxy-4a-methyl-2-oxo-N-[4-(trifluoromethyl)-2-[6-(trifluoromethyl)pyridin-3-yl]phenyl]-6,7-dihydro-5H-pyrrolo[1,2-b]pyridazine-3-carboxamide] | 80% |
| COC(=O)COc1ccc(CN2C(=O)C(C(=O)Nc3ccc(C(F)(F)F)cc3-c3ccc(C(F)(F)F)nc3)=C(O)[C@@]3(C)CCCN23)c(F)c1F [Example 150, Methyl 2-[4-[[(4aR)-4-Hydroxy-4a-methyl-2-oxo-3-[[4-(trifluoromethyl)-2-[6-(trifluoromethyl)pyridin-3-yl]phenyl]carbamoy]-6,7-dihydro-5H-pyrrolor[1,2-b]pyridazin-1-yl]methyl]-2,3-difluorophenoxy] acetate] | 87% |
| COc1cccc(-c2cc(C(F)(F)F)ccc2NC(=O)C2=C(O)[C@@]3(C)CCCN3N(Cc3ccc(OCc4ccncc4)c(F)c3F)C2=O)c1OC [Example 151] | 92% |
| C[C@]12CCCN1N(Cc1c(F)cc(OCCCCCOC[C@@H](O)CO)cc1F)C(=O)C(C(=O)Nc1ccc(C(F)(F)F)cc1-c1ccc(C(F)(F)F)nc1)=C2O [Example 153] | 73% |
| C[C@]12CCCN1N(Cc1c(F)cc(OCCCCCCOC[C@@H](O)CO)cc1F)C(=O)C(C(=O)Nc1ccc(C(F)(F)F)cc1-c1ccc(C(F)(F)F)nc1)=C2O [Example 154] | 73% |
| C[C@]12CCCN1N(Cc1c(F)cc(OCCCCCCOC[C@H](O)CO)cc1F)C(=O)C(C(=O)Nc1ccc(C(F)(F)F)cc1-c1ccc(C(F)(F)F)nc1)=C2O [Example 155] | 77% |
| COc1cccc(-c2cc(C(F)(F)F)ccc2NC(=O)C2=C(O)[C@@]3(C)CCCN3N(Cc3ccc(OC4CCOCC4)c(F)c3F)C2=O)c1OC [Example 158] | 84% |
| COc1cccc(-c2cc(C(F)(F)F)ccc2NC(=O)C2=C(O)[C@@]3(C)CCCN3N(Cc3ccc(OC[C@H]4CCCO4)c(F)c3F)C2=O)c1OC [Example 159] | 89% |
| C[C@]12CCCN1N(Cc1ccc(OC[C@H]3CCCO3)c(F)c1F)C(=O)C(C(=O)Nc1ccc(C(F)(F)F)cc1-c1ccc(C(F)(F)F)nc1)=C2O [Example 160] | 77% |
| C[C@]12CCCN1N(Cc1ccc(OCCCCCO)c(F)c1F)C(=O)C(C(=O)Nc1ccc(C(F)(F)F)cc1-c1cc(C(F)(F)F)ncn1)=C2O [Example 162] | 73% |
